Results on five compounds are retold here after patent US4335250A, “Compound with immunopotentiating activity and production and uses thereof” (Banyu Pharmaceutical Co., Ltd., priority 1978, dated 1982).

The test system of assay [1] is cellular immunity (cell-mediated immunity), DTH response to sheep red blood cells. The assay is described as follows: Delayed-Type Hypersensitivity (D.T.H.) technique, ICR mice immunized with sheep red blood cells (footpad swelling). It is filed as in vivo, ICR mouse (female, 6 weeks). The note with it: for Increase in thickness of footpad: 24 h after eliciting injection, control 8.3 ± 1.0; for Swelling degree: ICR mice, vs control. The method, then:
In this Example, the effect of BF-127 substance on cellular immunity (cell-mediated immunity) was tested according to a known Delayed-Type Hypersensitivity (D.T.H.) technique (see P. H. Lagrange, G. B. Mackaness and T. E. Mille, "J. Exp. Med", 139, 1529-1539 (1974) using mice immunized with sheep red blood cells as antigen.
(§1) Thus, 10^8 sheep red blood cells (SRBC) suspended in 0.05 ml of physiological saline were subcutaneously injected at the time of immunization to the right hind footpad of each ICR mouse under test (female, 6 weeks aged) to establish delayed-type hypersensitivity. Simultaneously with the immunization, a varying dose of BF-127 substance was intraperitoneally injected into each test mouse. Four days later, 10^8 sheep red blood cells were subcutantaneously injected into the left hind footpad of each test mouse for elicitation of the D.T.H. response. 24 hours after eliciting injection, the thickness of the left hind footpad was measured with a vernier caliper to evaluate the degree of the resulting edema in the footpad. The degree of the swelling serves to estimate the cellular immunity involved. In the Table, the swelling degree is expressed in terms of the values calculated by the equation: [formula]
By way of reference, the test results conducted by the same procedure as above except that BF-127 substance was orally administered are indicated in Table 2 below.

Assay [2] shares this test system. The assay can be described thus: Delayed-type hypersensitivity (footpad swelling), CDF1 mice. It is filed as in vivo, CDF1 mouse (male, 9 weeks). The procedure: as §1
The same test procedure as described in Example 7 was repeated but using CDF1 (DBA/2xBALB/CF1) male mice (9 weeks old), in which varying doses of BF-127 substance were intraperitoneally injected or orally administered into each test mouse. The tests results are shown in Table 3 below where the swelling degree has the same significance as in Example 7.

The test system of a further assay is Gardner Lymphoma. The assay is described as follows: Inhibitory effect on growth of transplanted Gardner Lymphoma. To be noted: for Average weight of tumors / Inhibition: 5 days, 30 days after transplantation; for Average weight of tumors: untreated 1310 mg; for Inhibition: tumor growth. It counts as in vivo, C3H/He mouse (female, 10 weeks). The text has this: 10^5 Gardner Lymphoma cells were transplanted subcutaneously to the inguinal of each C3H/He mouse under test (female, 10 weeks old, 5 mice per group).

In assay [3] the test system is IMC Carcinoma. The assay is described as follows: Inhibitory effect on IMC Carcinoma, 5×10^6 cells transplanted. The note with it: 5 days, 30 days; for Average weight of tumors: untreated 12380 mg; for Inhibition: tumor growth. It counts as in vivo, CDF1 mouse (female, 14 weeks). The text has this:
5×10^6 IMC tumor cells were transplanted hypodermically to the inguinal section of each CDF1 mouse under test (female, 14 weeks old, 5 mice per group).

Assay [4] deals with IMC Carcinoma. The assay is described as follows: Inhibitory effect on IMC Carcinoma, 1×10^6 cells inoculated. It is filed as in vivo, CDF1 mouse (female, 14 weeks). The note with it: for Average weight of tumors: untreated 5635 mg; for Inhibition: tumor growth. The text has this: This Example illustrates the inhibitory effect of BF-127 substance on IMC Carcinoma. […] Pathological studies have shown that the above tumor is a sort of epithelial undifferentiated tumors.
5×10^6 IMC tumor cells were transplanted hypodermically to the inguinal section of each CDF1 mouse under test (female, 14 weeks old, 5 mice per group). 8 days after transplantation, a varying dose of BF-127 substance was intraperitoneally injected into each test mouse once a day for five successive days. 30 days after transplantation, the tumor formed were removed and weighed to evaluate the inhibitory effect of BF-127 substance on tumor growth in terms of average weight of the tumors formed in 5 mice.
Further tests were conducted following the procedure as above wherein 1×10^6 IMC tumor cells were inoculated and BF-127 substance was intraperitoneally injected (I.P.) or orally administered (P.O.).

Assay [5] deals with cellular immunity (cell-mediated immunity), DTH response to sheep red blood cells. The assay is described as follows: Delayed-type hypersensitivity (footpad swelling), CDF1 mice. It is filed as in vivo, CDF1 mouse (male, 9 weeks). To be noted: other strains of mice of different ages.
In a further assay the test system is immune response. The note with it: Japanese Patent Pre-publication No. 44632/79; U.S. Pat. No. 4,238,507; cited from earlier work.
In the next assay the test system is alkaline phosphatase. The note with it: cited from earlier work.
Assay [6] relates to delayed-type hypersensitivity. The note with it: cited from earlier work.
The next assay relates to antibody-forming cells. The note with it: cited from earlier work.
Where [7] appears, read: 20 μg/mouse (Control) i.p. once a day.
Where [8] appears, read: 100 μg/mouse (Control) i.p. once a day.

With `O=C(O)c1ccc(CO)c(O)c1` [BF-127, 3-hydroxy-4-(hydroxymethyl) benzoic acid], the “Increase in thickness of footpad” value in assay [1] (0.1 μg/mouse i.p.) stood at 14.3 ± 1.1 × 0.1 mm; in [1] (1 μg/mouse i.p.), 19.4 ± 1.8 × 0.1 mm; in assay [1] (10 μg/mouse i.p.), 15.5 ± 1.3 × 0.1 mm; in assay [1] (100 μg/mouse i.p.), 15.7 ± 0.3 × 0.1 mm; in assay [1] (1 mg/mouse i.p.), 13.1 ± 0.4 × 0.1 mm. For the same compound, the Swelling degree in assay [1] (0.1 μg/mouse i.p.) came out at 172%; in assay [1] (1 μg/mouse i.p.), 234%; in [1] (10 μg/mouse i.p.), 187%; in assay [1] (10 μg/mouse oral), 146%; in assay [1] (100 μg/mouse i.p.), 189%; in [1] (100 μg/mouse oral), 148%. Besides, the Swelling degree in assay [1] (1 mg/mouse i.p.) is reported as 158%; in [1] (1 mg/mouse oral) it was 133%; in [2] (0.1 μg/mouse, I.P. injection), 119%; in assay [2] (0.1 μg/mouse, oral administration), 103%; in [2] (1 μg/mouse, I.P. injection), 129%; in assay [2] (1 μg/mouse, oral administration), 115%. Besides, the Swelling degree worked out at 131% in assay [2] (10 μg/mouse, I.P. injection); 122% in assay [2] (10 μg/mouse, oral administration); 133% in assay [2] (100 μg/mouse, I.P. injection); 142% in assay [2] (100 μg/mouse, oral administration); 125% in [2] (1 mg/mouse, I.P. injection); 138% in assay [2] (1 mg/mouse, oral administration). For the same compound, the “potentiating effect on establishment of cellular immunity” value in assay [1] (i.p., 1 mg to 0.1 μg/mouse) was “intensive potentiating effect”. For the same compound, the “potentiating effect on DTH response” value in [1] (intravenous injection), in assay [1] (oral administration) and in assay [1] (subcutaneous injection) was “potentiating effect has also been observed” in each case. The “potentiation of the DTH response” value in [1] (oral, doses of 1 mg to 10 μg/mouse) was 30-50%. The “Average weight of tumors” value in the assay with Gardner Lymphoma (0.1 μg/mouse i.p. once a day) was determined as 950 mg; with Gardner Lymphoma (1 μg/mouse i.p. once a day) it was 930 mg; with Gardner Lymphoma (10 μg/mouse i.p. once a day), 570 mg; with IMC Carcinoma [3] (1 μg/mouse i.p. once a day), 5740 mg; in the assay on IMC Carcinoma [3] (10 μg/mouse i.p. once a day) it was 6190 mg; with IMC Carcinoma [3] (100 μg/mouse i.p. once a day), 7970 mg. Further, the “Average weight of tumors” value with IMC Carcinoma [4] (1 μg/mouse (I.P.)) is 2206 mg; in the assay with IMC Carcinoma [4] (1 μg/mouse (P.O.)), 2538 mg; in the assay with IMC Carcinoma [4] (10 μg/mouse (I.P.)), 1312 mg; in the assay with IMC Carcinoma [4] (10 μg/mouse (P.O.)) it was 2638 mg. In addition, in the assay with Gardner Lymphoma (BF-127 at 10 μg/mouse), the “inhibition of tumor growth compared to Bleomycin” value is “superior or comparable to Bleomycin”. Further, the Inhibition (commonly the percentage by which the read-out fell short of the control) in the assay with Gardner Lymphoma (0.1 μg/mouse i.p. once a day) amounted to 27.5%; in the assay with Gardner Lymphoma (1 μg/mouse i.p. once a day), 29.0%; in the assay with Gardner Lymphoma (10 μg/mouse i.p. once a day), 56.5%; in the assay on IMC Carcinoma [3] (1 μg/mouse i.p. once a day) it was 53.6%; in the assay on IMC Carcinoma [3] (10 μg/mouse i.p. once a day) it was 50.0%; in the assay on IMC Carcinoma [3] (100 μg/mouse i.p. once a day), 35.6%. For the same compound, the Inhibition was determined as 60.8% in the assay with IMC Carcinoma [4] (1 μg/mouse (I.P.)), 55.0% in the assay on IMC Carcinoma [4] (1 μg/mouse (P.O.)), 76.8% in the assay with IMC Carcinoma [4] (10 μg/mouse (I.P.)) and 53.0% in the assay with IMC Carcinoma [4] (10 μg/mouse (P.O.)). The immunopotentiating effect result in [5] is on record as “also observed”.
With `NC(C(=O)O)c1ccc(CO)c(O)c1` (stereo not drawn) [forphenicinol], in the assay with immune response, the immunopotentiating activity result was “found to have an immunopotentiating activity”.
On to `CO[C@@]12[C@H](COC(N)=O)C3=C(C(=O)C(C)=C(N)C3=O)N1C[C@@H]1N[C@@H]12` [MMC, Mytomycin, reference compound], for which, in the assay with IMC Carcinoma [3] (setting [7]), the “Average weight of tumors” value came to 5510 mg and the Inhibition is given as 55.5%.
Turning to Bleomycin [reference compound], in the assay on Gardner Lymphoma (setting [8]), the “Average weight of tumors” value came out at 760 mg and the Inhibition came out at 42.0%. Further, in the assay with IMC Carcinoma [3] (100 μg/mouse i.p. once a day), the “Average weight of tumors” value came to 5770 mg and the Inhibition came out at 53.4%.
Take `NC(C(=O)O)c1ccc(C=O)c(O)c1` (stereo not drawn) [Forphenicine]: the “inhibition of alkaline phosphatase” value in the assay with alkaline phosphatase is “strong inhibitor”. Further, the delayed-type hypersensitivity entry in assay [6] is “enhances delayed-type hypersensitivity”. In addition, the “number of antibody-forming cells” value in the assay on antibody-forming cells is “increases the number of antibody-forming”.
